Test results as given in paper PMC9611521, “Optimization of Resveratrol Used as a Scaffold to Design Histone Deacetylase (HDAC-1 and HDAC-2) Inhibitors” (Pharmaceuticals, 2022).

Key:
Type in all cases: biochemical
[1] = biological target: T1, HDAC-8 (Homo sapiens, UniProt Q9BY41); experiment: Enzymatic HDAC selectivity panel, HDAC-8; details: compound at 10 µM
T1 sequence (Q9BY41 1-377): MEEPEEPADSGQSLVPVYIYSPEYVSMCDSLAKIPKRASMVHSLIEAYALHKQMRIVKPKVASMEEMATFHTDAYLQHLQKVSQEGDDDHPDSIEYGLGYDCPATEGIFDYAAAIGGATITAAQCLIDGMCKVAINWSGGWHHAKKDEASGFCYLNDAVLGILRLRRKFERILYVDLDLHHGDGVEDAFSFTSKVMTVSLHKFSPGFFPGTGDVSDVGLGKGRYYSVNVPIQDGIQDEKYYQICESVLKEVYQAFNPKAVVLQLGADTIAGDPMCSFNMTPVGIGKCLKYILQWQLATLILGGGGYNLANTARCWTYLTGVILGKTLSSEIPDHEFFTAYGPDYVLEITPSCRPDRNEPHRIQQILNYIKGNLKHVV
Description: (§1) Enzymatic assays to evaluate HDAC inhibition were performed, and the design involved three steps: (a) Preliminary screening to identify the most promising compounds; (b) Evaluation by a panel of HDAC isoforms to investigate selectivity; and (c) Determination of IC50 values. Firstly, compounds (4–7; 15–26) were evaluated at 10 µM against HDAC-1 and HDAC-2 (Table 2).
(§2) The enzymatic assay to evaluate HDAC inhibitory effects for all final compounds against the distinct isoforms was carried out in accordance with the previously described procedures (Lopes et al., 2021). All compounds were initially screened at 10 µM against HDAC-1 and HDAC-2. […] All the compounds were dissolved in DMSO. A serial dilution of the compounds was performed in 100% DMSO with the highest concentration at 1 mM. Each intermediate compound dilution (in 100% DMSO) was diluted 10x in assay buffer to form a 10% DMSO intermediate dilution in HDAC assay buffer. 5 µL of this dilution was added to a 50 µL reaction to bring the final concentration of DMSO to 1% in all the reactions. […] The fluorescence intensity was measured at an excitation of 360 nm and emission of 460 nm using a Tecan Infinite M1000 microplate reader, and the percentage of activity was calculated using the formula: % activity = (F − Fb)/(Ft − Fb), where F = the intensity of fluorescence in the presence of the compound. […]

[2] = biological target: HDAC-4 (Homo sapiens, UniProt P56524); experiment: Enzymatic HDAC selectivity panel, HDAC-4; details: compound at 10 µM
Description: as §1, §2

[3] = biological target: HDAC-2 (Homo sapiens, UniProt Q92769); experiment: Enzymatic HDAC inhibition assay (fluorescence), HDAC-2
Description: as §1
(§3) The enzymatic assay to evaluate HDAC inhibitory effects for all final compounds against the distinct isoforms was carried out in accordance with the previously described procedures (Lopes et al., 2021). All compounds were initially screened at 10 µM against HDAC-1 and HDAC-2. […] All the compounds were dissolved in DMSO. A serial dilution of the compounds was performed in 100% DMSO with the highest concentration at 1 mM. Each intermediate compound dilution (in 100% DMSO) was diluted 10x in assay buffer to form a 10% DMSO intermediate dilution in HDAC assay buffer. 5 µL of this dilution was added to a 50 µL reaction to bring the final concentration of DMSO to 1% in all the reactions. Three independent experiments were carried out in triplicate for all experiments. The fluorescence intensity was measured at an excitation of 360 nm and emission of 460 nm using a Tecan Infinite M1000 microplate reader, and the percentage of activity was calculated using the formula: % activity = (F − Fb)/(Ft − Fb), where F = the intensity of fluorescence in the presence of the compound. In the absence of the test compound, the fluorescent intensity (Ft) in each dataset was defined as 100% activity, while in the absence of HDAC, the fluorescent intensity (Fb) in each dataset was set to 0% activity.

[4] = biological target: HDAC-9 (Homo sapiens, UniProt Q9UKV0); experiment: Enzymatic HDAC selectivity panel, HDAC-9; details: compound at 10 µM
Description: as §1, §2

[5] = biological target: T2, HDAC-6 (Homo sapiens, UniProt Q9UBN7); experiment: Enzymatic HDAC selectivity panel, HDAC-6; details: compound at 10 µM
T2 sequence (Q9UBN7 1-1215): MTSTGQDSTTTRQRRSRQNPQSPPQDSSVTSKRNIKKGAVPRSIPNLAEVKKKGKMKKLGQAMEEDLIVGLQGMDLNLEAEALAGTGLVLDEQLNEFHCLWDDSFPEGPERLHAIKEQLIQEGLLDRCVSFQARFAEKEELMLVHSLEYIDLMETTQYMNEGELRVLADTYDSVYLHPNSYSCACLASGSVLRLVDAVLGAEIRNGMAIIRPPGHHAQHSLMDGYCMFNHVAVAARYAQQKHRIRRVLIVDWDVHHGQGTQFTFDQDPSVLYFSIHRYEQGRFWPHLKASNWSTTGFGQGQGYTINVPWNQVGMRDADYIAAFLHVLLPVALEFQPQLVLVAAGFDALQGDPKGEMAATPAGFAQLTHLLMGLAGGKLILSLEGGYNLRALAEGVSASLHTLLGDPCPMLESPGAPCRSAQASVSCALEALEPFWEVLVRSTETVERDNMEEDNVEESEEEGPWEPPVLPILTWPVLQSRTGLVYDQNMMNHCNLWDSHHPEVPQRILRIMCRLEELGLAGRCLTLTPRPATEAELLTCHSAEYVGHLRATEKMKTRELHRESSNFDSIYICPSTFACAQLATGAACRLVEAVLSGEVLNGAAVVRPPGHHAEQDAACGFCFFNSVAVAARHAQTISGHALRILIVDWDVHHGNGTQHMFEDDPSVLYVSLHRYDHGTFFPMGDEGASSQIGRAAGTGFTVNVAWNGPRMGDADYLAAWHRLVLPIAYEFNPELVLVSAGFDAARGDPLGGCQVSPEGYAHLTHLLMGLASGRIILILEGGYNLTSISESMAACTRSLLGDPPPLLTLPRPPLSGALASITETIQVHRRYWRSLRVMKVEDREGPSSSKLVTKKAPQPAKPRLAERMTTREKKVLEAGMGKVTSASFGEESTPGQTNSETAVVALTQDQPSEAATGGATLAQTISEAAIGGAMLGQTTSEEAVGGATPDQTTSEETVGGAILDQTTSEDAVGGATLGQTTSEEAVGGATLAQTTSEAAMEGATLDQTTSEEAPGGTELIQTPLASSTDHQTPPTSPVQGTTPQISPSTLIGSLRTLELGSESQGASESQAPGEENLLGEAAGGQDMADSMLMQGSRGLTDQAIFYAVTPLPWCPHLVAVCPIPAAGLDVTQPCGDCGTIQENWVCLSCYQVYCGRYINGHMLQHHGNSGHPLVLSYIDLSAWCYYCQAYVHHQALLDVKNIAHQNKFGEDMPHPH
Description: as §1, §2

[6] = biological target: HDAC-3 (Homo sapiens, UniProt O15379); experiment: Enzymatic HDAC selectivity panel, HDAC-3; details: compound at 10 µM
Description: as §1, §2

[7] = biological target: HDAC-5 (Homo sapiens, UniProt Q9UQL6); experiment: Enzymatic HDAC selectivity panel, HDAC-5; details: compound at 10 µM
Description: as §1, §2

[8] = biological target: HDAC-1 (Homo sapiens, UniProt Q13547); experiment: Enzymatic HDAC inhibition assay (fluorescence), HDAC-1
Description: as §1, §3

HDAC-2, sequence (Q92769 whole entry): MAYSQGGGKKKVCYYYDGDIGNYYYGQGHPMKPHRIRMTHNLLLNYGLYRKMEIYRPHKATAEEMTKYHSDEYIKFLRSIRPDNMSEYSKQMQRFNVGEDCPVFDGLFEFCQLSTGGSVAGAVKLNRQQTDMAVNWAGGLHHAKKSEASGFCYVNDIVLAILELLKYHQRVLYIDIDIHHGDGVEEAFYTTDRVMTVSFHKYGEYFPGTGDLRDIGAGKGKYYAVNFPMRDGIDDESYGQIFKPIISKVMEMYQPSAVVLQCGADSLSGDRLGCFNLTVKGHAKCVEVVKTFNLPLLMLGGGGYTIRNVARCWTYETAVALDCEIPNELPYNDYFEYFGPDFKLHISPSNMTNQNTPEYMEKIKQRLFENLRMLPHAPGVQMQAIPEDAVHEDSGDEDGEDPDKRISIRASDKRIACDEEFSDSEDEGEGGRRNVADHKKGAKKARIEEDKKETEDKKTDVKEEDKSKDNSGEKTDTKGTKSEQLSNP
HDAC-1, sequence (Q13547 whole entry): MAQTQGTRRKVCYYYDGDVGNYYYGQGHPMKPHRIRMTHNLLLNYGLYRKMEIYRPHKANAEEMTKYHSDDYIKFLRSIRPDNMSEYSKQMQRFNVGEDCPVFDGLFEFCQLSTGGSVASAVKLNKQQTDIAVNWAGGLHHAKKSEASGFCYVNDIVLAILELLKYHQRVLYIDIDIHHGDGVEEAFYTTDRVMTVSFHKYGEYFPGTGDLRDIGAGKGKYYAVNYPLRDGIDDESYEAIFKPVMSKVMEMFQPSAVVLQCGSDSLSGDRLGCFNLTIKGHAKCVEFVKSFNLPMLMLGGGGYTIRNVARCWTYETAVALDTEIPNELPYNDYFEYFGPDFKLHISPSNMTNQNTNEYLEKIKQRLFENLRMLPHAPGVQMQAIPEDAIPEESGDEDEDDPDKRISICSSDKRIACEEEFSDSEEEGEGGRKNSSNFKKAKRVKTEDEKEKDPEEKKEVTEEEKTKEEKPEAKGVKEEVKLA
HDAC-4, sequence (P56524 whole entry): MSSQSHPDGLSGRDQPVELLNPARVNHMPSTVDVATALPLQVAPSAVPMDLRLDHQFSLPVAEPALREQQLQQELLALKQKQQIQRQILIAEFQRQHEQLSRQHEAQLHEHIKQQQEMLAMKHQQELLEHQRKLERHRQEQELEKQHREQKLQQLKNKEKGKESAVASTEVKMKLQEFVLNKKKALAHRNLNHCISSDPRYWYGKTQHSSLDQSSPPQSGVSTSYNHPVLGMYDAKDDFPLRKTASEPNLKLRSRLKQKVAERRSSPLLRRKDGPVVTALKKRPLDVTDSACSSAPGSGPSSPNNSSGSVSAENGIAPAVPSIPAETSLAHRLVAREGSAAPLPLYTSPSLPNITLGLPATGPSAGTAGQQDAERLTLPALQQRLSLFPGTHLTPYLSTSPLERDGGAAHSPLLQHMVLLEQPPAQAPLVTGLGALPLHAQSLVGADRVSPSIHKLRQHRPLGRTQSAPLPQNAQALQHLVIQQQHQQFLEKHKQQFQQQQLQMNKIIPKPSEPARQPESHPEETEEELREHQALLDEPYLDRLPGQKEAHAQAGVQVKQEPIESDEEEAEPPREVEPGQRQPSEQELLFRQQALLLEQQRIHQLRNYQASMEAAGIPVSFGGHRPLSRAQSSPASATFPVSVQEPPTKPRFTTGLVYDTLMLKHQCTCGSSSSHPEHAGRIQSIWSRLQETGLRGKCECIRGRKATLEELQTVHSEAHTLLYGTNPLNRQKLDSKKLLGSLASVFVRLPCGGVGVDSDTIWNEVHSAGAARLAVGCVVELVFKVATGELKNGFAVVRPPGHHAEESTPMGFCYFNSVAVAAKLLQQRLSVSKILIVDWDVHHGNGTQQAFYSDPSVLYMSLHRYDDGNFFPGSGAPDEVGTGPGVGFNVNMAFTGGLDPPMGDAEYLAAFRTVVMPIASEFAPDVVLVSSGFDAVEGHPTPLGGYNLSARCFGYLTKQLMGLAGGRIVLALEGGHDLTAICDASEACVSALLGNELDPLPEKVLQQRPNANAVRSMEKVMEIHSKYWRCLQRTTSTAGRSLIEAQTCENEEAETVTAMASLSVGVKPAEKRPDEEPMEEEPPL
HDAC-3, sequence (O15379 whole entry): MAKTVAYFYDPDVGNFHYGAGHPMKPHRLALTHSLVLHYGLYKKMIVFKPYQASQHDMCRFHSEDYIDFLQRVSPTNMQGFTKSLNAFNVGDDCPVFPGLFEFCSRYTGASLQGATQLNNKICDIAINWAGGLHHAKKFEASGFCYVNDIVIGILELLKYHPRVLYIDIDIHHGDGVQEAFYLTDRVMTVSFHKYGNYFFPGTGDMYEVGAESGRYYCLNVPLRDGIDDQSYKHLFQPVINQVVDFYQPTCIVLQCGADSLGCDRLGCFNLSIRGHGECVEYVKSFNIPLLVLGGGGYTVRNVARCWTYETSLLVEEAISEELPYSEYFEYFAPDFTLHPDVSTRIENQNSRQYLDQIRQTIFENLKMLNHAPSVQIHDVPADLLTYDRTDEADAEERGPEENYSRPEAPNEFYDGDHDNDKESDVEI
HDAC-3, sequence (Q9Y618 395-489 partner limits assumed): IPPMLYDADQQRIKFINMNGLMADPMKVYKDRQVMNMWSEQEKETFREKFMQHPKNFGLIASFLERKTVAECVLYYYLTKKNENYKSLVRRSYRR
HDAC-9, sequence (Q9UKV0 whole entry): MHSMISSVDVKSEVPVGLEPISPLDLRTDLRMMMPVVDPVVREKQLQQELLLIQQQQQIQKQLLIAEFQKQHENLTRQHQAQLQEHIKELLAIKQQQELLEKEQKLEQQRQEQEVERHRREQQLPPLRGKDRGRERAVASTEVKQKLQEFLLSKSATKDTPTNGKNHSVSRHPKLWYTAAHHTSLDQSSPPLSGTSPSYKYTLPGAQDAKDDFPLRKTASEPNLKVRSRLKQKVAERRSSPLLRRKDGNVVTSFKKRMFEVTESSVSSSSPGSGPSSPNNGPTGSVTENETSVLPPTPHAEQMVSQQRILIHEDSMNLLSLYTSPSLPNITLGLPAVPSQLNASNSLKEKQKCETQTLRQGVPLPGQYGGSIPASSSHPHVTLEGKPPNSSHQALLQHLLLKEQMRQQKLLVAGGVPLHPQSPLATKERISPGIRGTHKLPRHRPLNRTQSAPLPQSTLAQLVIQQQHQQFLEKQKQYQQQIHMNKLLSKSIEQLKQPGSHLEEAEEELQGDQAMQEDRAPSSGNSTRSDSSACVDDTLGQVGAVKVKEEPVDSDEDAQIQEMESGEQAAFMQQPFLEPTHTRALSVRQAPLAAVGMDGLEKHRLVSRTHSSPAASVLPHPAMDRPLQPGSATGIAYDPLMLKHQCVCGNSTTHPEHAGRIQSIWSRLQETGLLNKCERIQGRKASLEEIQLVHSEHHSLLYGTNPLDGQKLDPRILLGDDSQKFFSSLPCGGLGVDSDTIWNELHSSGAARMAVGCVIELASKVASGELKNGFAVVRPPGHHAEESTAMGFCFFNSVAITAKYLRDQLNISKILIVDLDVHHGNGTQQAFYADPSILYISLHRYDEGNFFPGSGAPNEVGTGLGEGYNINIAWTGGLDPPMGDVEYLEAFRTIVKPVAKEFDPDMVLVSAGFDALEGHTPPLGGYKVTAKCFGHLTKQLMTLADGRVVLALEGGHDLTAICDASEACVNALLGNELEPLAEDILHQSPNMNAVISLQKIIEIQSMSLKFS
HDAC-5, sequence (Q9UQL6 whole entry): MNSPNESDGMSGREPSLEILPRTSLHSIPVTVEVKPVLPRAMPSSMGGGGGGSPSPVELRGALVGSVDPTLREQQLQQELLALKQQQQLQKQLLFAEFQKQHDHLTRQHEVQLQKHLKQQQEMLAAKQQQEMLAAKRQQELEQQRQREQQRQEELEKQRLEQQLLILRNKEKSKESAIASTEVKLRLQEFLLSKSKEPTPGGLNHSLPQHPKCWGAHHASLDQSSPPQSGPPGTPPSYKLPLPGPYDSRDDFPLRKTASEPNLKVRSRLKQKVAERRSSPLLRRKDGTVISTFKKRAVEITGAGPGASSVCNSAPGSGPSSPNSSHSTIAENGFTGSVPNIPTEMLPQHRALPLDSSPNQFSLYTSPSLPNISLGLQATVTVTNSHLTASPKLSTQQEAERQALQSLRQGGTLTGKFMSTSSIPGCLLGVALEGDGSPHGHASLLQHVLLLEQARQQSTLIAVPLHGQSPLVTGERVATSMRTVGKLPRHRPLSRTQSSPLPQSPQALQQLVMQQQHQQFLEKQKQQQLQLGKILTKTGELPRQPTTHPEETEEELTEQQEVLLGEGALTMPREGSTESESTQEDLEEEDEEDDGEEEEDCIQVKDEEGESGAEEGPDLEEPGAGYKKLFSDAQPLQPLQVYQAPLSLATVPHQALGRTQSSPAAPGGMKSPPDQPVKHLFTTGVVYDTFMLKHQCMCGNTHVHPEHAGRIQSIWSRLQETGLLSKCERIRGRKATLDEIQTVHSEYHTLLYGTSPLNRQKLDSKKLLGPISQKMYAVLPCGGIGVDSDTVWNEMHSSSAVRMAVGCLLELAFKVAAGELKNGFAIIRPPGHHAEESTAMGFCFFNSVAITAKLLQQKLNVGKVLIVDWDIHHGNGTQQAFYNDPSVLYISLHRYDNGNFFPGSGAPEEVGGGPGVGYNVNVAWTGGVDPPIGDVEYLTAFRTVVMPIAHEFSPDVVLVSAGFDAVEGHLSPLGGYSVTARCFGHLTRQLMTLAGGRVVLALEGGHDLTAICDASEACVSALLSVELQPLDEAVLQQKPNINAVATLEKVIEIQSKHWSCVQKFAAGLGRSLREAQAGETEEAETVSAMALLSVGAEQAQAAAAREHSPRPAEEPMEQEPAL

For Nc1ccc(CCc2ccc(C(=O)Nc3ccccc3N)cc2)cc1 [Compound (5)], which inhibition at 10 µM [1] is on record?
The inhibition at 10 µM was 13 ± 1%.

What about the inhibition at 10 µM [2] of the same compound?
The inhibition at 10 µM was 5 ± 0.4%.

And the inhibition at 10 µM ([3]; compound at 10 µM)?
The inhibition at 10 µM was 93%.

And the HDAC-2 inhibition ([3]; compound at 10 µM, 10 µM)?
Its HDAC-2 inhibition is 92 ± 0.8%.

And the IC50 ([3]; substrate 10 µM)?
Its IC50 is 0.37 µM.

What about the inhibition at 10 µM [4] of the same compound?
The inhibition at 10 µM was 7 ± 0.4%.

And the inhibition at 10 µM [5]?
The inhibition at 10 µM was 3 ± 0.4%.

And the inhibition at 10 µM [6]?
Its inhibition at 10 µM is 82 ± 1.2%.

What about the inhibition at 10 µM [7] of the same compound?
Its inhibition at 10 µM is 5 ± 0.5%.

What about the inhibition at 10 µM ([8]; compound at 10 µM) of the same compound?
Its inhibition at 10 µM is 92%.

What about the HDAC-1 inhibition ([8]; compound at 10 µM, 10 µM) of the same compound?
The HDAC-1 inhibition was 93 ± 1.0%.

And the IC50 ([8]; substrate 10 µM)?
The IC50 was 0.44 µM.
